Activity calls are given as the source filed them.
Assays:
[1] = target: Nonstructural protein 1 (Influenza A virus, UniProt Q194T2); assay type: functional, Influenza A virus (A/California/07/2009(H1N1))
[2] = target: T1, Replicative DNA helicase DnaB (Mycobacterium tuberculosis, UniProt P9WMR3); test: DnaB intein splicing inhibitors, dose response, biochemical, cell-free fluorescence (AID 449749); assay type: functional
T1 sequence (P9WMR3 whole entry): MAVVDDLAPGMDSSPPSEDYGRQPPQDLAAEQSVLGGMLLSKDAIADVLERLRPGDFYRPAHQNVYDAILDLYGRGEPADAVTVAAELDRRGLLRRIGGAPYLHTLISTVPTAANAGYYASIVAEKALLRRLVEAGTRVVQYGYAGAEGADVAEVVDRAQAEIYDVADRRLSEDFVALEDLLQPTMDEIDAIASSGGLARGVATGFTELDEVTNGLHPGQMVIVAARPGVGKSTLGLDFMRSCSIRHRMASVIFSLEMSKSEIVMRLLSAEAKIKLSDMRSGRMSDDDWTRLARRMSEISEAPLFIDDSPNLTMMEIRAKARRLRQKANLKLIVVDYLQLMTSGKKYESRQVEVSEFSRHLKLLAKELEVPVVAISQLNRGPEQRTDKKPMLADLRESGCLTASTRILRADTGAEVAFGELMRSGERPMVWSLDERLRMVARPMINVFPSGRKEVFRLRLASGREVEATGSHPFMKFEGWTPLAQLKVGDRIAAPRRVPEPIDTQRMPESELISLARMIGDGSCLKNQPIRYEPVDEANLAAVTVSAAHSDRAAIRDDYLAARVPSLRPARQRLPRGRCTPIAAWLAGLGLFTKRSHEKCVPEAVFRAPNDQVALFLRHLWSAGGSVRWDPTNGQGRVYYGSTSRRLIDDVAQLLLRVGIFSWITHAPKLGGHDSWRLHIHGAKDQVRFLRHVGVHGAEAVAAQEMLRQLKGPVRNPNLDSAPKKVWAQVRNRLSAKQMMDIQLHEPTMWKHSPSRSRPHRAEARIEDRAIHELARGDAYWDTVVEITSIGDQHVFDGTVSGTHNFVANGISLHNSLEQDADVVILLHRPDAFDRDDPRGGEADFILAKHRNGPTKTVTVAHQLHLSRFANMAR

[3] = target: T2, Protein RecA (Mycobacterium tuberculosis, UniProt P9WHJ3); test: Fluorescence Cell-Free Homogeneous Dose Retest to Identify Inhibitors of RecA-Intein Splicing Activity. [Related pubchem assays (depositor defined):AID2097, AID2223, AID489010, AID492950]; assay type: functional
T2 sequence (P9WHJ3 whole entry): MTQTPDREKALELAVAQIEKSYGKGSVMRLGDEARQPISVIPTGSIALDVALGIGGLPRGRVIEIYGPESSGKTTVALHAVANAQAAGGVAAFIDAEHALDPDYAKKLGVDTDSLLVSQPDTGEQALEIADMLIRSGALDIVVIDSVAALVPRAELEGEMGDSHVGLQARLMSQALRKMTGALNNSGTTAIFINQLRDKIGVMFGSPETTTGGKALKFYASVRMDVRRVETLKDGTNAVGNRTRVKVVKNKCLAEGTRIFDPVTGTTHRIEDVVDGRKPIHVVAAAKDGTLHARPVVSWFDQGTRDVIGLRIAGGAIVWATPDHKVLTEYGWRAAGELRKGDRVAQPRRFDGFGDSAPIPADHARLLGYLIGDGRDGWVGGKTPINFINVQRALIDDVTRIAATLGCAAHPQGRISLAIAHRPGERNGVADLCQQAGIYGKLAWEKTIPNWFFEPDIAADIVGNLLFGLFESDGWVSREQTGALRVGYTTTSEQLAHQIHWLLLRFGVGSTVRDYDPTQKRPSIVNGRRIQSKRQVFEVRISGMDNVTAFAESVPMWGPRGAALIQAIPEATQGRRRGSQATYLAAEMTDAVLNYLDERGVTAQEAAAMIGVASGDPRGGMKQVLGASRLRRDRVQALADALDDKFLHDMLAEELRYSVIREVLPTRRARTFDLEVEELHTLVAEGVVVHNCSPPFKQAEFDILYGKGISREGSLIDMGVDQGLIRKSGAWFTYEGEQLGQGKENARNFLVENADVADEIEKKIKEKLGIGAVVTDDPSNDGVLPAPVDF

[4] = target: fMet-Leu-Phe receptor (Homo sapiens, UniProt P21462); test: formyl peptide receptor binders – dose response (AID 519); assay type: functional
[5] = Late stage assay provider results from the probe development effort to identify selective inhibitors of heat shock protein 90 (HSP90): Absorbance-based cell proliferation assay in SKBR3 cells.; assay type: functional; conditions: SK-BR-3
[6] = Late stage assay provider results from the probe development effort to identify selective inhibitors of heat shock protein 90 (HSP90): Absorbance-based cell proliferation assay in MCF7 cells.; assay type: functional
[7] = target: Metabotropic glutamate receptor 5 (Rattus norvegicus, UniProt P31424); test: Identification of a glycine sulfonamide based non-MPEP site positive allosteric potentiator (PAM) of mGlu5 (calcium_assay).; assay type: functional
[8] = target: T3, Leucine aminopeptidase (Plasmodium falciparum 3D7, UniProt Q8IL11); test: P. falciparum M17LAP inhibitors, primary screen, biochemical, fluorogenic H-Leu-NHMec substrate, 1536-well (AID 1619); assay type: functional
T3 sequence (Q8IL11 whole entry): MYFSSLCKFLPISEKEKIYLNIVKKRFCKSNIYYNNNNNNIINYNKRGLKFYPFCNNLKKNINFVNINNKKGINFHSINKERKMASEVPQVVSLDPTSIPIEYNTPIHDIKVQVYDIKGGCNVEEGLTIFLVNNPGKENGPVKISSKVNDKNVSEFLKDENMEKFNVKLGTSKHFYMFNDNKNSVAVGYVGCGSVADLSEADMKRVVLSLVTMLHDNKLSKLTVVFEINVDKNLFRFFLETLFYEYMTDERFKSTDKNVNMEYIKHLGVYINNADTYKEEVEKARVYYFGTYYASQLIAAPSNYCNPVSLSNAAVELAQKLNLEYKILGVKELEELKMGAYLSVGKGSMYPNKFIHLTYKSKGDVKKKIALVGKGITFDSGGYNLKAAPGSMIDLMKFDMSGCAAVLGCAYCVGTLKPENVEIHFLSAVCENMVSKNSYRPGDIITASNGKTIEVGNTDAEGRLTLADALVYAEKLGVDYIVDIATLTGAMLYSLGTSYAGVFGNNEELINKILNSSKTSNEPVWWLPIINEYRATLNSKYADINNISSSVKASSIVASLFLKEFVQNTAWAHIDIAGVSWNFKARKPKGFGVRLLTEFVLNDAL

[9] = target: Peroxisome proliferator-activated receptor gamma/Nuclear receptor coactivator 2 (Homo sapiens, UniProt P37231); assay type: functional;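 further: agonist potency for raising coactivator recruitment to the receptor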
[10] = target: Peroxisome proliferator-activated receptor gamma/Nuclear receptor coactivator 1 (Homo sapiens, UniProt P37231); assay type: functional;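 further: agonist potency as compounds enhance coactivator SRC-1 recruitment to PPARgamma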
[11] = target: Peroxisome proliferator-activated receptor gamma/Nuclear receptor coactivator 3 (Homo sapiens, UniProt P37231); assay type: functional;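 further: agonist potency for raising coactivator recruitment to the receptor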
[12] = target: Mucolipin-3 (Homo sapiens, UniProt Q8TDD5); test: Dose response cell-based high-throughput screening assay for agonists of the transient receptor potential channel ML3 (TRPML3). [Related pubchem assays: 1526, 1424, 1448 ]; assay type: functional
[13] = target: Ion channel NompC (Danio rerio, UniProt Q7T1G6); test: Fluorescence counterscreen assay for TRPML3 agonists: dose response cell-based high-throughput screening assay to identify agonists of the transient receptor potential channel N1 (TRPN1). [Related pubchem assays: 1526, 1424, 1448 ]; assay type: functional
[14] = target: T4, Oxysterols receptor LXR-beta (Homo sapiens, UniProt P55055); assay type: functional, cell-based;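 further: agonist activity at LXR measured by a cell-based luminescence readout across a dose range, run as a counterscreen for daf-12 agonists; HEK293 cells with Gal4-LXR fusion and GAL4-driven luciferase reporter; potency for activation of Gal4-LXR reporter so compounds are agonists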
T4 sequence (P55055 whole entry): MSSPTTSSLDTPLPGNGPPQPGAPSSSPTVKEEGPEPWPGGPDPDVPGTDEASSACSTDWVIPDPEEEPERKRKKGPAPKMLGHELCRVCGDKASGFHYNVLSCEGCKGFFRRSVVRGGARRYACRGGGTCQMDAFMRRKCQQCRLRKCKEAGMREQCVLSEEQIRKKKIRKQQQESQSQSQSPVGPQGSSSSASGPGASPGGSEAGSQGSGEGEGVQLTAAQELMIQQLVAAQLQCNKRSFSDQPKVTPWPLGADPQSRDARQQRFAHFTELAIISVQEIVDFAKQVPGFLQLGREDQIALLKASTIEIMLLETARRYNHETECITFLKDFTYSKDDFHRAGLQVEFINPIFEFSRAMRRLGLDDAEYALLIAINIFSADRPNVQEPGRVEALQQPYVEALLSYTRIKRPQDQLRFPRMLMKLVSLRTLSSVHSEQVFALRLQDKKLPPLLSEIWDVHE

[15] = test system: Streptococcus sp. 'group A'; test: Streptococcus pyogenes SK(-)GAS viability under kanamycin – luminescence, BacTiterGlo, confirmation, counter-screen for streptokinase expression inhibitor project, dose response (AID 1900); assay type: functional, organism-based
[16] = target: T5, Streptokinase A (Streptococcus pyogenes serotype M1, UniProt P10520); test: viability-normalized secreted streptokinase activity reduction – plasminogen activation absorbance, OD405, dose response (AID 1914); assay type: functional, Streptococcus pyogenes M1 GAS;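 further: secreted streptokinase activity via plasminogen activation per viability signal from cell pellet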
T5 sequence (P10520 whole entry): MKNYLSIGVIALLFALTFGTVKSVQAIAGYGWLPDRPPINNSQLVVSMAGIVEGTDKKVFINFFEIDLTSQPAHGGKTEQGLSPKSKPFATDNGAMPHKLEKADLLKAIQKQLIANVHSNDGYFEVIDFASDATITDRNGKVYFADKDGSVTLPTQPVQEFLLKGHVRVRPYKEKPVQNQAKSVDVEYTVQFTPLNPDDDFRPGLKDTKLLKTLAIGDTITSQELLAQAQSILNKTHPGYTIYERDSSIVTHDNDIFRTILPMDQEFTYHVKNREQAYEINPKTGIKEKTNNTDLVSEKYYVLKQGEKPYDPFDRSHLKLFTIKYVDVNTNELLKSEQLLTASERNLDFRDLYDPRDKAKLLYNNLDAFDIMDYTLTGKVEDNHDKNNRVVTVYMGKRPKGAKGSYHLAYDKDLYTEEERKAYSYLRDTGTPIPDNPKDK

[17] = test system: Streptococcus; test: GAS UMAA2166 growth inhibition – luminescence, BacTiterGlo, counter-screen for streptokinase expression inhibitor project, dose response (AID 1915); assay type: functional, organism-based;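 further: potency for reduction of bacterial viability or growth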
[18] = target: Disintegrin and metalloproteinase domain-containing protein 17 (Homo sapiens, UniProt P78536); test: exosite inhibitors of ADAM17, dose response, biochemical (AID 743260)

Ion channel NompC, sequence (Q7T1G6 whole entry, the tested form may be a part): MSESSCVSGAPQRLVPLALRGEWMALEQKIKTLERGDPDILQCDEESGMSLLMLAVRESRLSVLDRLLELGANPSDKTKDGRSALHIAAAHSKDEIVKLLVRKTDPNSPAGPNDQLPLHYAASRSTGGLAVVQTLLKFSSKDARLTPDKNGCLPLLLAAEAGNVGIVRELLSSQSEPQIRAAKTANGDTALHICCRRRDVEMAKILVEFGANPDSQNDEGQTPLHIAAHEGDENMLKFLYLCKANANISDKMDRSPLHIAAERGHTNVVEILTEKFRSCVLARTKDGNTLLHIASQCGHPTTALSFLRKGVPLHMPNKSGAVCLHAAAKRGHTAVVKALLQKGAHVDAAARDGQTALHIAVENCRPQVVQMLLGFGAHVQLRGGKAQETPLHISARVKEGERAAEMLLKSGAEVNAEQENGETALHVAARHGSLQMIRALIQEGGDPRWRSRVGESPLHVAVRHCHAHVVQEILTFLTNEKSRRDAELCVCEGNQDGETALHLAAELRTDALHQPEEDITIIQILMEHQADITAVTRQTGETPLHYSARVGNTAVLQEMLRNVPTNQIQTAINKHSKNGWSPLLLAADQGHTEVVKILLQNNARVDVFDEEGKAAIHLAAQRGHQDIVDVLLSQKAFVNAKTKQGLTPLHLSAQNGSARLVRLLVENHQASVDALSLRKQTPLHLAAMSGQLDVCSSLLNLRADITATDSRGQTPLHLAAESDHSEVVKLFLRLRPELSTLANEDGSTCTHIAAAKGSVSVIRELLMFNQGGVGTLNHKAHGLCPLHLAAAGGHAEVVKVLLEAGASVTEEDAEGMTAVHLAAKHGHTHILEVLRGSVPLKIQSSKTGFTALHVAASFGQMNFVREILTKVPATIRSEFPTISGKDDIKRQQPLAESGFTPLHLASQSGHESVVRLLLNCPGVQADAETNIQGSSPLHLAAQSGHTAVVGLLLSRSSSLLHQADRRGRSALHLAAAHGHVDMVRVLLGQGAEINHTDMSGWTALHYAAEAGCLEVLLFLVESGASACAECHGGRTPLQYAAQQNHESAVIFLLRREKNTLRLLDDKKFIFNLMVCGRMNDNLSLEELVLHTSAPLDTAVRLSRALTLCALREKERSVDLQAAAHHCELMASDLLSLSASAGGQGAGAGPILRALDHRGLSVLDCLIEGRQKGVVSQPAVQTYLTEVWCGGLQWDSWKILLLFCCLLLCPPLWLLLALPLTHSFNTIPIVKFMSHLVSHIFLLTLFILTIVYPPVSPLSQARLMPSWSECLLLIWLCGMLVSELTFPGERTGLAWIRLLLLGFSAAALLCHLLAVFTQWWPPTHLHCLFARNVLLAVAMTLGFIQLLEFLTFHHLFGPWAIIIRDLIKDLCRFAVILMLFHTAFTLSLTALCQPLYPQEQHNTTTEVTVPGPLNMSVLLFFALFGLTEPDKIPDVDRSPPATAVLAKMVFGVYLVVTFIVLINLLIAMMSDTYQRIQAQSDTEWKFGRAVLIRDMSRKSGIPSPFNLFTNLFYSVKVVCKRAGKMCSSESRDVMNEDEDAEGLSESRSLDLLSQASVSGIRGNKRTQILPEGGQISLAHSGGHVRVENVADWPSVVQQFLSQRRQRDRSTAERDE
Mucolipin-3, sequence (Q8TDD5 whole entry): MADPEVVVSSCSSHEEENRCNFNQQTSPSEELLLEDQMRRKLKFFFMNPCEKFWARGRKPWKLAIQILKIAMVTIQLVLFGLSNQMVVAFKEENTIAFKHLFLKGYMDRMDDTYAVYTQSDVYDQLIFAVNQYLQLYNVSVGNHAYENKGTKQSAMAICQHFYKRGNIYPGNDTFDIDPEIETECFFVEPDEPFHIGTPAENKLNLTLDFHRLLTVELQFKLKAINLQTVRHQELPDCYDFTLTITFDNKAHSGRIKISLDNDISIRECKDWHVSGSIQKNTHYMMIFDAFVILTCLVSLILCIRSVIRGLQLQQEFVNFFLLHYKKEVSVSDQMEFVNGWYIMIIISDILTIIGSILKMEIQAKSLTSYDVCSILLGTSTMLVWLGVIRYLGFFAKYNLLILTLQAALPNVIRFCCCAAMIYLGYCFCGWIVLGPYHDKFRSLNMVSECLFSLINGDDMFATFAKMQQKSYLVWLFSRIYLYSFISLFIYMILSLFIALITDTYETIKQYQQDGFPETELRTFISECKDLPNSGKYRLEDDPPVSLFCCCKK
Peroxisome proliferator-activated receptor gamma/Nuclear receptor coactivator 2, sequence (P37231 whole entry): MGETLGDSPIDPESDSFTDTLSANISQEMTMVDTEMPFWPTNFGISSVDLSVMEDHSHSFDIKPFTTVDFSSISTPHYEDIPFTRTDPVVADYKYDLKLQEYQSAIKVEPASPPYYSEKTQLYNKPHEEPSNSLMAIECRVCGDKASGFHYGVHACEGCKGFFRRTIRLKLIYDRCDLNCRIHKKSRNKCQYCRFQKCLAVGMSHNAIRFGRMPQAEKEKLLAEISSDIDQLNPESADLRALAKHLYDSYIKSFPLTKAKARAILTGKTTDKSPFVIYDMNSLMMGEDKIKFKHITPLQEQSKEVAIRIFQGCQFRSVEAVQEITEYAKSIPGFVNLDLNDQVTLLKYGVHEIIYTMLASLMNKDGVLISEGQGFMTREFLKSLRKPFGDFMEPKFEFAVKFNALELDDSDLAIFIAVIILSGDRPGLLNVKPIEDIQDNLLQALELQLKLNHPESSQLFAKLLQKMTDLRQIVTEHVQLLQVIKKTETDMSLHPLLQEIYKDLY
Peroxisome proliferator-activated receptor gamma/Nuclear receptor coactivator 2, sequence (Q15596 whole entry, further chain): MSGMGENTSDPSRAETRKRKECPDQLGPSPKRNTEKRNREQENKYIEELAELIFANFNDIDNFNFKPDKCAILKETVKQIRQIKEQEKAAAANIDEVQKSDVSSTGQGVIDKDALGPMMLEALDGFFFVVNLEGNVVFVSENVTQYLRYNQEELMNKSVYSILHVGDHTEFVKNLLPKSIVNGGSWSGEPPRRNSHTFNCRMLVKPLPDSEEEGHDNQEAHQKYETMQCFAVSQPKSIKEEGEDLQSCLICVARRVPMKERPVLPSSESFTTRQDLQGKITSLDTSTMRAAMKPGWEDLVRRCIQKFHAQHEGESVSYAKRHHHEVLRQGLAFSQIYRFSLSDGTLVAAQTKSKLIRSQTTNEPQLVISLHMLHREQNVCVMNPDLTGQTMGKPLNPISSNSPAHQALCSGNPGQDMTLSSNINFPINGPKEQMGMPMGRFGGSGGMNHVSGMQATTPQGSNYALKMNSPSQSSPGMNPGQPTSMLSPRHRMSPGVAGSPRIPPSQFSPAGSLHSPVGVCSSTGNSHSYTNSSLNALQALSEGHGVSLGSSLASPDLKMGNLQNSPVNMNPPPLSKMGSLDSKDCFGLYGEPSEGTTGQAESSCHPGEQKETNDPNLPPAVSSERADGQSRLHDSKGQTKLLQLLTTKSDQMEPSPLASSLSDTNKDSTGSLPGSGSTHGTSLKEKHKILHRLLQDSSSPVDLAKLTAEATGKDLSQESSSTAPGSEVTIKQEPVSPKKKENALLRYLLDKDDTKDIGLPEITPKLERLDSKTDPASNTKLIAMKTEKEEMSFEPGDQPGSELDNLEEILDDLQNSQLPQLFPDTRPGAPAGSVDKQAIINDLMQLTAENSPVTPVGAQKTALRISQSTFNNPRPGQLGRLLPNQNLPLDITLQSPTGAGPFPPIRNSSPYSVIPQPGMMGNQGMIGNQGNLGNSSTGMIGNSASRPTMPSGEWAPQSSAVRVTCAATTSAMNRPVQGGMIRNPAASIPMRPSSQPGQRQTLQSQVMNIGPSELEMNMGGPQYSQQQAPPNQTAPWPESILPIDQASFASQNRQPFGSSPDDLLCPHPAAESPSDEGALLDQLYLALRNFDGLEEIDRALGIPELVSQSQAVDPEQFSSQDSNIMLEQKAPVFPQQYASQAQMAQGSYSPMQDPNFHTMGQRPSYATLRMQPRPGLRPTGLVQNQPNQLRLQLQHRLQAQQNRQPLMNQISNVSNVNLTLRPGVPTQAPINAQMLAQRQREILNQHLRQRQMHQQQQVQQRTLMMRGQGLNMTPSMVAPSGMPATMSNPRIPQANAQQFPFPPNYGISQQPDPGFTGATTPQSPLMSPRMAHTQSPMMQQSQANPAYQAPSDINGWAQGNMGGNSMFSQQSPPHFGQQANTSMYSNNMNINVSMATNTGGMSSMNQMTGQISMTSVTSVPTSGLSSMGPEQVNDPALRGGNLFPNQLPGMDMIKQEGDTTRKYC
fMet-Leu-Phe receptor, sequence (P21462 whole entry): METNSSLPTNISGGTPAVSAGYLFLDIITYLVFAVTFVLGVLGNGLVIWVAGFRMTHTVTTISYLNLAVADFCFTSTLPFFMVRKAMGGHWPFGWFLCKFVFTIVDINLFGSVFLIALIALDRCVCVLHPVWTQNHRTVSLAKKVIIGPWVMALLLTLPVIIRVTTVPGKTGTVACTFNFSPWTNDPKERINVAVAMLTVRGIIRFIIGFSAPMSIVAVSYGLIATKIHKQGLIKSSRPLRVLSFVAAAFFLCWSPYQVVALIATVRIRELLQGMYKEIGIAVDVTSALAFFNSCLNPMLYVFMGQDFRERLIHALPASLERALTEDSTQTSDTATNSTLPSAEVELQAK
Nonstructural protein 1, sequence (Q194T2 whole entry): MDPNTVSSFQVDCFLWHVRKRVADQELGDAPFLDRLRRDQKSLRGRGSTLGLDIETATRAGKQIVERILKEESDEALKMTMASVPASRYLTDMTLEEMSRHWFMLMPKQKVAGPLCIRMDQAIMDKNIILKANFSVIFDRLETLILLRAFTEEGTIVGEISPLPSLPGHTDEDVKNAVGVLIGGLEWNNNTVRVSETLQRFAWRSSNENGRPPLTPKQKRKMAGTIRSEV

Nc1ccc(Nc2ccccc2N)cc1
IC50 [1]: 8.33 µM (active) | AC50 [2]: 17.9 µM (active) | EC50 [3]: 6.86 µM (active) | Ki [4]: > 66.7 µM (inactive)

CC(=O)c1ccc(NC(=O)c2ccc(=O)oc2)cc1
IC50 [5]: > 100 µM (inactive) | IC50 [6]: > 100 µM (inactive)

CS(=O)(=O)N(CC(=O)Nc1ccccn1)c1cc(C(F)(F)F)ccc1Cl
EC50 [7]: 0.085 µM

C=CCN1C=CC(=C/C=C(/C#N)C(=O)OCC)C=C1
IC50 [8]: 72.5 µM (active) | EC50 [9]: > 79.4 µM (not active) | EC50 [10]: > 79.4 µM (not active) | EC50 [11]: > 79.4 µM (not active) | EC50 [12]: 15.3 µM (not active) | EC50 [13]: 6.09 µM (active) | EC50 [14]: > 67.5 µM (inactive)

Cc1cc(SCC(=O)c2ccc(O)c(O)c2)n2nc(C)c(-c3ccccc3)c2n1
EC50 [15]: 7.32 µM (active) | EC50 [16]: > 150 µM (not active) | EC50 [17]: 13.9 µM (active) | IC50 [18]: > 69.5 µM (inactive)

— ChEMBL document CHEMBL1201862, “PubChem BioAssay data set” (2004)
